These results are taken from patent US12012375B2, “Prostaglandin F2 alpha derivatives for decreasing intraocular pressure” (GURUS BIOPHARM LIMITED LIABILITY COMPANY, priority 2018, dated 2024).

The test system of data set [1] is 3T3-L1 cells. Description: Cytotoxicity, MTT assay of cell survival. In kind it is cell-based. To be noted: cultivated mice 3T3-L1 cells, 24 hours incubation. How it is done:
(§1) 3T3-L1 cells were incubated at 95% humidity, in the 5% CO2 atmosphere, at 37° C. Cultivation was performed in DMEM medium comprising 7% FCS, 2 mM of glutamine, 100 U/ml of penicillin, 100 μg/ml of streptomycin and 0.25 μg/ml of amphotericin B. Cells were subcultured every 48-72 hours. For the purpose of suspending the cells were incubated in Versene's solution within 1 minute and in Trypsin-EDTA solution within 1 minute (0.25%).
(§2) Cells were inoculated by 30 thousand into wells of 96-well plate (monolayer) in 100 μl of medium for MTT-test. After 24 hours of cultivation 100 μl of test substances in the medium used for cell culture were added to the cells with replacement of culture medium with a new one. Cells were incubated with test substances for 24 hours. Cells, to which 100 μl of medium used for cell culture were added to, were used as […].
(§3) Assessment of cell survival in the culture using the MTT assay After the incubation, the medium was removed from each well, and then 100 μl of MTT solution were added to each well (0.5 mg/ml of MTT, 3.5 mg/ml of D-glucose in Hanks' solution). The plate was placed into CO2-incubator (Ependorf, Germany) for 1.5 h. After that, MTT was removed and 100 μl of DMSO were added to each well and mixed for 2 minutes in a shaker at 550 rpm. Then, the solution optical density was determined at the wavelength of 576 nm and 620 nm using a plate reader (EFOS 9305, OAO MZ Sapphir).

In data set [2] the test system is 3T3-L1 cells. Description: Nitric oxide generation (modified Griess method). In kind it is cell-based, mice. As to conditions: for NO generation, % to control: mice 3T3-L1 cells, concentration of 100 μM, 20 hours. How it is done:
3T3-L1 cells were incubated at 95% humidity, in the 5% CO2 atmosphere, at 37° C. Cultivation was performed in DMEM medium comprising 7% FCS, 2 mM of glutamine, 100 U/ml of penicillin, 100 μg/ml of streptomycin and 0.25 μg/ml of amphotericin B. Cells were subcultured every 48-72 hours. For the purpose of suspending the cells were incubated in Versene's solution within 2-3 minutes and in Trypsin-EDTA solution (0.25%).
Cells were inoculated by 30 thousand into wells (monolayer) of 96-well plate in 100 μl of medium. Incubation with substances lasted 20 hours. After that, medium aliquot was sampled from each well, and NO concentration was determined by modified Griess method. 12.5 μl of 0.04% sulfanilamide water solution were added to 75 μl of test medium in wells of 96-well plate for EIA, held within 10 minutes at room temperature protected from light, then, 12.5 μl of 2% naphthylethylenediamine solution in 3M of HCl were added, held again for 10 minutes at room temperature protected from light, then the optical absorption was determined at the wavelength of 540 nm.
Background: The Griess reaction detects nitrite, a stable product of nitric oxide.

For another data set, the system named is normotensive rabbits. In words: Reducing intraocular pressure after instillation in normotensive rabbits. To be noted: for IOP reduction: single instillation of 2 drops into both eyes, maximum value of 5 animals' average data within 6 hours. It is filed as in vivo, chinchilla rabbits. How it is done:
The study was performed on chinchilla rabbits with a mass of 2.5-3 kg. IOP was measured by automatic manual veterinary tonometer Tonovet (Icare, Finland).
2 groups of rabbets were used for testing each sample:
5 animals instilled with a single dose of sample into both eyes.
5 animals instilled with a single dose of normal saline into both eyes.
All test samples were instilled by 2 drops by a disposable pipette. IOP was measured before instillation and further, every hour within 6 hours. All tested substances were capable of reducing intraocular pressure in normotensive rabbits.

Data set [3] can be described thus: Cytotoxicity, MTT assay of cell survival. It is filed as cell-based. To be noted: mouse, cultivated mice 3T3-L1 cells, 24 hours incubation. How it is done: as §1, §2, §3
On the technique in general: Tetrazolium dyes change colour on reduction, which living cells bring about.

The subject of data set [4] is 3T3-L1 cells. In words: Increase of intracellular calcium concentration (Calcium Green fluorescence). As to conditions: 67 μM stated for the reference substances, for 10 minutes. In kind it is cell-based, mice. How it is done:
3T3-L1 cells were cultivated in DMEM medium with addition of 10% fetal calf serum (FCS), 4 mM of L-glutamine, 100 U/ml of penicillin, 100 μg/ml of streptomycin, 2.5 μg/ml of amphotericin B. Cells were cultured in the atmosphere of 5% CO2, 95% humidity at 37° C. Cell density at the time of experiment was 7000 per well of a 96-well plate, Calcium Green dye (1.5 mM, loading in 0.4% Pluronic F-62 in incubation medium without BSA for 1 hour at 37° C., triple washing of 200 μl of incubation medium after loading), incubation medium: Hanks' solution, 1 g/l of D-glucose, 1 mg/ml of fat-free BSA, introduction of substances in ethanol (<0.5% final concentration), incubation at 25° C., detecting at the excitation wavelength 485 nm, emission wavelength 535 nm.
A general note: A change in cytosolic calcium serves as a functional read-out for many receptors and channels.

A value given as a limit tells only on which side of the number the result lay.

With `CCCCCC(O)C=CC1C(O)CC(O)C1CC=CCCCC(=O)N1CCCC1CO` [Compound 7, Prostaglandin F2a Amide with L-Prolinol], the EC50 in the data set with 3T3-L1 cells [1] stood at 104 ± 2 µM. Further, the “NO generation, % to control” value in the data set with 3T3-L1 cells [2] turned out to be 15%.

As for “Prostaglandin F2α Amide with L-Nitroserine Isopropyl Ether [Compound 5]”, the EC50 with 3T3-L1 cells [1] was 195 ± 2 µM. The same molecule gave an IOP reduction in the data set with normotensive rabbits of 1.20 mm Hg.

“Prostaglandin F2α Amide with L-Nitroserine [Compound 1]” came in with an EC50 with 3T3-L1 cells [1] of 226.4 ± 2 µM. Moreover, the “NO generation, % to control” value with 3T3-L1 cells [2] is 7%.

For the molecule `CCCCC[C@H](O)/C=C/[C@@H]1[C@@H](C/C=C\CCCC(=O)NC2CC2)[C@@H](O)C[C@H]1O` [Compound 6, Prostaglandin F2α Amide with Cyclopropylamine], it took 124 ± 2 µM to reach a half-maximal effect with 3T3-L1 cells [1] (EC50). Also, in the data set on normotensive rabbits, the “ability to reduce intraocular pressure (in words)” value is on record as “more prominent” and the IOP reduction is 3.30 mm Hg. Further, the “NO generation, % to control” value in the data set on 3T3-L1 cells [2] stood at 5%.

In turn, `CCCCC[C@H](O)/C=C/[C@@H]1[C@@H](C/C=C\CCCC(=O)NCCOC(=O)NCCO[N+](=O)[O-])[C@@H](O)C[C@H]1O` [Compound 11, Prostaglandin F2α Amide with 2-Aminoethyl-[2-(Nitroxy)Ethyl]Carbamate] returned an EC50 at 24 h in data set [3] of 184 ± 3 µM. In the data set on normotensive rabbits, this molecule gave an IOP reduction of 1.50 mm Hg. The “NO generation, % to control” value in the data set on 3T3-L1 cells [2] was 28%.

In the data set with 3T3-L1 cells [1], `CCCCCC(O)C=CC1C(O)CC(O)C1CC=CCCCC(=O)NC(CO)C(=O)O` [Compound 2, Prostaglandin F2α Amide with L-Serine] had a concentration giving a half-maximal response (EC50) above 200 µM. Further, the “NO generation, % to control” value with 3T3-L1 cells [2] amounted to 25%.

In the data set on 3T3-L1 cells [1], “Prostaglandin F2α Amide with L-Serine Isopropyl Ether [Compound 3]” returned an EC50 of 144 ± 3 µM. In the data set on normotensive rabbits, the “ability to reduce intraocular pressure (in words)” value is “more prominent” and the IOP reduction is listed as 3.20 mm Hg. For the same molecule, in the data set with 3T3-L1 cells [4], the “calcium sensor fluorescence increase relative to control” value is reported as 405 AU. The “nitric oxide level increase relative to control” value in the data set on 3T3-L1 cells [2] (3T3-L1 cells, 25 μM) worked out at 60%. In addition, in the data set with 3T3-L1 cells [2] (3T3-L1 cells, tested 25 to 100 μM), the “concentration of maximum activity (most effective concentration) for induction of nitrogen oxide generation” value was found to be 25 µM. The “NO generation, % to control” value with 3T3-L1 cells [2] was determined as 15%.

On to prostaglandin F2α, for which, in the data set on 3T3-L1 cells [4], the “calcium sensor fluorescence increase relative to control” value stood at 195 AU.

In the case of `CCCCC[C@H](O)/C=C/[C@@H]1[C@@H](C/C=C\CCCC(=O)NCCO)[C@@H](O)C[C@H]1O` [prostamide F2, prostaglandin F2α ethanolamide], the “calcium sensor fluorescence increase relative to control” value in the data set with 3T3-L1 cells [4] was found to be 185 AU.

Molecule “Prostaglandin F2α Amide with γ-Aminobutyric Acid Nitroethanolamide [Compound 8]” displayed an IOP reduction in the data set with normotensive rabbits of 2.00 mm Hg. The “NO generation, % to control” value in the data set with 3T3-L1 cells [2] was 22%.

As usually defined, the EC50 is the midpoint of the concentration-response curve.
